Measurements from US11426397B2, “Piperidinyl- and piperazinyl-substituted heteroaromatic carboxamides as modulators of GPR6” (TAKEDA PHARMACEUTICAL COMPANY LIMITED, priority 2017, dated 2022).

Molecular target: T1, GPR6 receptor expressed in CHO-K1 cells (Homo sapiens, UniProt P46095)
T1 construct: expressed in transfected cells
Test: In vitro inhibition of cAMP (EC50), cell-based HTRF cAMP assay
Details: inhibition of constitutive cAMP activity of GPR6 in CHO-K1 cells
Summary of the method: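 Tetracycline-inducible CHO-K1 line, GPR6 expression induced 20 h with 2 μg/mL doxycycline. Compounds incubated 45 min at 37 °C in Ringer's buffer (pH 7.4) with 0.5% fatty acid free BSA and 300 μM IBMX. Constitutive cAMP read by Lance HTRF; EC50 from four-parameter logistic fit.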

T1 sequence (P46095 whole entry): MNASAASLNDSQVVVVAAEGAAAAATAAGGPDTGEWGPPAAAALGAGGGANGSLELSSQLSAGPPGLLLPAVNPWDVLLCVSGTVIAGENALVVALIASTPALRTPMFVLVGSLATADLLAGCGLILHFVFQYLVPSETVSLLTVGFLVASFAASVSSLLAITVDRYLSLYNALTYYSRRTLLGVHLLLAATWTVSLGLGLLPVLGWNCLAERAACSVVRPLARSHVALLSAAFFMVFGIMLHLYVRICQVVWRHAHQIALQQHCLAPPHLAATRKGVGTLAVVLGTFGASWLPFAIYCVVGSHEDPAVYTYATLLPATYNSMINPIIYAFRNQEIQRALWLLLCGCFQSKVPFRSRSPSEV

pEC50, in vitro inhibition of cAMP | SMILES
5.9 | COc1ccccc1CN1CCN(c2ccc(C#N)cc2NC(=O)c2cccnc2OC)CC1 [Example 247, N-(5-cyano-2-(4-(2-methoxybenzyl)piperazin-1-yl)phenyl)-2-methoxynicotinamide]
6.9 | COc1ncccc1C(=O)Nc1cc(C#N)ccc1N1CCN(Cc2cccc(C#N)c2)CC1 [Example 248, N-(5-cyano-2-(4-(3-cyanobenzyl)piperazin-1-yl)phenyl)-2-methoxynicotinamide]
6.4 | COc1ncccc1C(=O)Nc1cc(C#N)ccc1N1CCN(Cc2c(F)cccc2F)CC1 [Example 249]
6.0 | COc1ccc(CN2CCN(c3ccc(C#N)cc3NC(=O)c3cccnc3OC)CC2)nc1 [Example 250, N-(5-cyano-2-(4-((5-methoxypyridin-2-yl)methyl)piperazin-1-yl)phenyl)-2-methoxynicotinamide]
7.3 | COc1ncc(F)cc1C(=O)Nc1ccc(C#N)nc1N1CCC(Oc2ccc(F)cc2F)CC1 [Example 255, N-(6-cyano-2-(4-(2,4-difluorophenoxy)piperidin-1-yl)pyridin-3-yl)-5-fluoro-2-methoxynicotinamide]
7.2 | COc1ncccc1C(=O)Nc1cc(C#N)ncc1N1CCC(Oc2ccc(F)cc2F)CC1 [Example 261, N-(2-cyano-5-(4-(2,4-difluorophenoxy)piperidin-1-yl)pyridin-4-yl)-2-methoxynicotinamide]
6.8 | COc1nn(C)cc1C(=O)Nc1cc(C#N)ncc1N1CCN(Cc2ccc(F)c(F)c2F)CC1 [Example 266, N-(2-cyano-5-(4-(2,3,4-trifluorobenzyl)piperazin-1-yl)pyridin-4-yl)-3-methoxy-1-methyl-1H-pyrazole-4-carboxamide]
6.4 | COc1nn(C)cc1C(=O)Nc1cc(C#N)ncc1N1CCN(Cc2cc(F)c(F)c(F)c2)CC1 [Example 267, N-(2-cyano-5-(4-(3,4,5-trifluorobenzyl)piperazin-1-yl)pyridin-4-yl)-3-methoxy-1-methyl-1H-pyrazole-4-carboxamide]
6.9 | COc1ncccc1C(=O)Nc1cnc(C#N)cc1N1CCC(Oc2ccc(F)cc2F)CC1 [Example 270, N-(6-cyano-4-(4-(2,4-difluorophenoxy)piperidin-1-yl)pyridin-3-yl)-2-methoxynicotinamide]
7.1 | COc1ncccc1C(=O)Nc1cc(C#N)c(C#N)cc1N1CCC(Oc2ccc(F)cc2F)CC1 [Example 271]
7.3 | COc1ncccc1C(=O)Nc1cc(C#N)c(C(=O)N(C)C)cc1N1CCC(Oc2ccc(F)cc2F)CC1 [Example 273]

Second part, the molecule before the results:

SMILES | pEC50, in vitro inhibition of cAMP
COc1ncccc1C(=O)Nc1cnc(C(=O)N[C@@H]2CCOC2)cc1N1CCC(Oc2ccc(F)cc2F)CC1 [Example 251, (R)-4-(4-(2,4-difluorophenoxy)piperidin-1-yl)-5-(2-methoxynicotinamido)-N-(tetrahydrofuran-3-yl)picolinamide] | 6.8
CCNC(=O)c1cc(N2CCC(Oc3ccc(F)cc3F)CC2)c(NC(=O)c2cccnc2OC)cn1 [Example 252, 4-(4-(2,4-difluorophenoxy)piperidin-1-yl)-N-ethyl-5-(2-methoxynicotinamido)picolinamide] | 7.0
COc1ncccc1C(=O)Nc1cnc(C(=O)NC(C)C)cc1N1CCC(Oc2ccc(F)cc2F)CC1 [Example 253, 4-(4-(2,4-difluorophenoxy)piperidin-1-yl)-N-isopropyl-5-(2-methoxynicotinamido)picolinamide] | 6.8
CCCNC(=O)c1cc(N2CCC(Oc3ccc(F)cc3F)CC2)c(NC(=O)c2cccnc2OC)cn1 [Example 254, 4-(4-(2,4-difluorophenoxy)piperidin-1-yl)-5-(2-methoxynicotinamido)-N-propylpicolinamide] | 7.2
COc1c(C(=O)Nc2ccc(C#N)nc2N2CCC(Oc3ccc(F)cc3F)CC2)cnn1C [Example 256, N-(6-cyano-2-(4-(2,4-difluorophenoxy)piperidin-1-yl)pyridin-3-yl)-5-methoxy-1-methyl-H-pyrazole-4-carboxamide] | 6.7
Cn1cccc(C(=O)Nc2ccccc2N2CCC(Oc3ccc(F)cc3F)CC2)c1=O [Example 257, N-(2-(4-(2,4-difluorophenoxy)piperidin-1-yl)phenyl)-1-methyl-2-oxo-1,2-dihydropyridine-3-carboxamide] | 7.0
O=C(Nc1ccccc1N1CCN(C(=O)c2ccc(Cl)cc2)CC1)c1ncccn1 [Example 258, N-(2-(4-(4-chlorobenzoyl)piperazin-1-yl)phenyl)pyrimidine-2-carboxamide] | 4.9
O=C(Nc1ccccc1N1CCN(C(=O)c2ccc(Cl)cc2)CC1)c1ccncn1 [Example 259, N-(2-(4-(4-chlorobenzoyl)piperazin-1-yl)phenyl)pyrimidine-4-carboxamide] | 5.3
CN(C(=O)c1ccccc1O)c1ccccc1N1CCN(C(=O)c2ccc(Cl)cc2)CC1 [Example 260] | 4.9
COc1ccncc1C(=O)Nc1cc(C(=O)N(C)C)ncc1N1CCC(Oc2ccc(F)cc2F)CC1 [Example 262, 5-(4-(2,4-difluorophenoxy)piperidin-1-yl)-4-(4-methoxynicotinamido)-N,N-dimethylpicolinamide] | 7.3
COc1ccncc1C(=O)Nc1cnc(C)cc1N1CCC(Oc2ccc(F)cc2F)CC1 [Example 263] | 7.1
COc1ncccc1C(=O)Nc1cnccc1N1CCC(Oc2ccc(F)cc2F)CC1 [Example 264] | 6.8
COc1ncccc1C(=O)Nc1cc(C(=O)N(C)C)ccc1N1CCC(Oc2ccc(F)cc2F)CC1 [Example 265] | 6.7
COCc1cc(N2CCC(Oc3ccc(F)cc3F)CC2)c(NC(=O)c2cccnc2OC)cn1 [Example 268] | 6.9
COc1ncccc1C(=O)Nc1cnc(C(N)=O)cc1N1CCC(Oc2ccc(F)cc2F)CC1 [Example 269, 4-(4-(2,4-difluorophenoxy)piperidin-1-yl)-5-(2-methoxynicotinamido)picolinamide] | 6.9
COc1ncccc1C(=O)Nc1cc(C(=O)N(C)C)c(C#N)cc1N1CCC(Oc2ccc(F)cc2F)CC1 [Example 272] | 7.4
N#Cc1ccc(N2CCC(Oc3ccc(F)cc3F)CC2)c(NC(=O)c2ccc[nH]c2=O)c1 [Example 274] | 7.0
N#Cc1ccc(N2CCC(Oc3ccc(F)cc3F)CC2)c(NC(=O)c2ccccc2O)c1 [Example 275, N-(5-cyano-2-(4-(2,4-difluorophenoxy)piperidin-1-yl)phenyl)-2-hydroxybenzamide] | 6.5
N#Cc1ccc(N2CCC(Oc3ccc(F)cc3F)CC2)c(NC(=O)c2cccnc2OC(F)F)c1 [Example 276, N-(5-cyano-2-(4-(2,4-difluorophenoxy)piperidin-1-yl)phenyl)-2-(difluoromethoxy)nicotinamide] | 7.3
N#Cc1ccc(N2CCC(Oc3ccc(F)cc3F)CC2)c(NC(=O)c2cccn(C(F)F)c2=O)c1 [Example 277, N-(5-cyano-2-(4-(2,4-difluorophenoxy)piperidin-1-yl)phenyl)-1-(difluoromethyl)-2-oxo-1,2-dihydropyridine-3-carboxamide] | 6.5
